Experiments:
[1] = tested on: Hepatitis B virus replication; test: Secreted HBV DNA quantitation in cell culture supernatants by real-time PCR; assay type: cell-based, Hepatitis B virus (human hepatoma cell lines)
Method: (§1) HepG2215 cell line, derived from HepG2 cells, was stably transfected with HBV DNA and supported full HBV replication with production of infectious virions and HBsAg. HepG2215 cells were cultured in 12-well plates, as described previously (7, 8), for 7 days prior to adding the cyclophilin inhibitors.
(§2) The cells were treated with 0.25, 1.0 or 5.0 micrograms/mL of NIM811 or DEB025; cells and supernatants were harvested separately at baseline, 6, 24, 48 and 72 hours after the addition of NIM811 or DEB025, respectively.
(§3) HuH-7 cells were transfected with a plasmid containing a pBlueScript KS(+) vector with a 1.5 HBV DNA genomes of subtype adw2 was used. Subconfluent HuH-7 cells were transfected with 5 μg of plasmid DNA per 60-mm-diameter dish using 10 μl of Superfect reagent (Qiagen, Crawley, UK). The supernatants were replaced 18 h posttransfection with medium supplemented with 10% FCS, and the cells were cultured for 3 days, as described (7).
(§4) Stably transfected (HepG2215) and transiently transfected (HUH-7) cells, producing full HBV virions and HBsAg particles, were treated with a range of Alisporivir concentrations (0.25, 1.0 5.0 or 20 micrograms/ml) alone, telbivudine alone, or combinations of Alisporivir and telbivudine. To determine the involvement of individual cyclophilins, HepG2215 cells were transfected with siRNA-specific for cyclophilin (Cyp) A, C or D and additionally treated with Alisporivir. Cytoplasmic extracts and supernatants were harvested at baseline; 24, 48 and 72 hours post-treatment. The kinetics of antiviral activity was assessed by quantitation of intracellular and secreted HBV-DNA (real-time qPCR) and HBsAg levels (ELISA).
(§5) HBV replication was assessed by quantitation of both viral nucleocapsid-associated HBV DNA (cytoplasmic) and the HBV DNA levels in cell culture supernatants, as described previously (8,9). Nucleocapsid HBV DNA was extracted and quantitated by TaqMan real-time PCR (ABI Prism 7700). Intracellular HBV DNA was normalized with b-actin as a house-keeping gene. Secreted HBV DNA was extracted with QIAmp DNA minikit (Qiagen, Sussex, UK) and also quantitated by TaqMan. The sensitivity of HBV DNA quantitation was verified in each run with serial dilutions of HBV DNA plasmid, as well as the EuroHep HBV DNA standard, as described (9,10).

[2] = tested on: Hepatitis B virus replication; test: Alisporivir treatment of HepG2215 cells silenced for CypA, C or D by siRNA; HBV-DNA and HBsAg levels; assay type: cell-based, Hepatitis B virus (human hepatoma cell line); conditions: greater effects in CypC or CypD silenced cells than CypA silenced cells (p<0.001)
Method: To assess the role of cyclophilin A in HBV replication, HepG2215 cells were transfected with siRNA for cyclophilin A and incubated with medium only or with the addition of NIM811 or DEB025. Similarly, the role of Cyclophilin B, C and D in HBV and HDV replication will be evaluated by siRNA specific for CypB, C and D.
as §4, with “Cytoplasmic extracts and supernatants were harvested at baseline; 24, 48 and 72 hours post-treatment.” left out
HepG2215 cells were seeded with the siRNAs (Dharmacon Inc., Lafayette, Colo.) at 50% density and incubated for 48 h. […] Total DNA was extracted from the samples and HBV DNA was quantitated by real time PCR, as above. […] The RNA was reverse transcribed with Quantitect Reverse transcription kit (Qiagen) and cDNA quantitated with SYBR Green Quantitect kit using Quantitect primers (Qiagen, Sussex, UK).

[3] = tested on: Hepatitis B virus replication; test: Intracellular (cytoplasmic, nucleocapsid-associated) HBV DNA quantitation by real-time PCR in HBV-transfected hepatoma cells; assay type: cell-based, Hepatitis B virus (human hepatoma cell lines); conditions: for reduction of cellular HBV DNA: FIG. 6
Method: as §1, §2, §3, §4, §5

[4] = tested on: Hepatitis B virus; conditions: at one year, cited from earlier work; for rate of undetectable HBV DNA: HBeAg-negative patients with CHB; for virological treatment response rate (undetectable serum HBV DNA): HBeAg-positive patients

Compound | reduction of secreted HBV-DNA ([1]; HepG2215 and HUH-7 cells, dose-dependent (0.25-20 micrograms/ml), compared with untreated controls, p<0.001) [%] | effect in reducing HBV DNA levels in cell culture supernatants compared with NIM811 ([1]; HepG2215 cells, 5.0 micrograms/mL, FIG. 2) | reduction of secreted HBV DNA ([1]; HepG2215 cells, FIG. 5) | reduction of secreted HBV DNA ([1]; transiently transfected Huh7 or stably transfected HepG2215 cells, FIG. 3) | HBV-DNA levels in Cyp-silenced cells [2] | HBsAg levels in Cyp-silenced cells [2] | reduction of intracellular HBV-DNA ([3]; HepG2215 and HUH-7 cells, dose-dependent (0.25-20 micrograms/ml), compared with untreated controls, p=0.004) [%] | reduction of intracellular HBV DNA compared with NIM811 ([3]; HepG2215 cells, 5 micrograms/mL, 72 h) | reduction of intracellular HBV DNA levels ([3]; HepG2215 cells, 5 micrograms/mL, 72 hours, FIG. 1) [fold] | reduction of cellular HBV DNA ([3]; HepG2215 cells) | reduction of cytoplasmic HBV DNA ([3]; Huh7 and HepG2215 cells, FIG. 4) | rate of undetectable HBV DNA [4] [%] | virological treatment response rate (undetectable serum HBV DNA) [4] [%]
C/C=C/C[C@@H](C)[C@@H](O)[C@H]1C(=O)N[C@@H](CC)C(=O)N(C)[C@H](C)C(=O)N(CC)[C@@H](C(C)C)C(=O)N[C@@H](C(C)C)C(=O)N(C)[C@@H](CC(C)C)C(=O)N[C@@H](C)C(=O)N[C@H](C)C(=O)N(C)[C@@H](CC(C)C)C(=O)N(C)[C@@H](CC(C)C)C(=O)N(C)[C@@H](C(C)C)C(=O)N1C [Alisporivir] | 63 | greater effect | reductions | dose-dependent reduction | further reduced | further reduced | 70 | greater than the reduction observed with NIM811 | 10 | reductions | dose dependent reductions |  | 
C=C1[C@H](CO)[C@@H](O)C[C@@H]1n1cnc2c(=O)[nH]c(N)nc21 [entecavir] |  |  |  |  |  |  |  |  |  |  |  | 90 | 67
Cc1cn([C@@H]2C[C@@H](O)[C@H](CO)O2)c(=O)[nH]c1=O [telbivudine, reference compound] |  |  | reductions |  |  |  |  |  |  | reductions |  | 88 | 60
C[C@H](Cn1cnc2c(N)ncnc21)OCP(=O)(O)O [tenofovir] |  |  |  |  |  |  |  |  |  |  |  | 91 | 74
